Key:
human GpA TM domain [1] = target: T1, human GpA TM domain (Homo sapiens, UniProt P02724); test: FRET kinetics of exchange of GpA TM peptides between particles/micelles; assay type: binding; settings: for amplitude of first (fast) phase / amplitude of second (slow) phase / exchange rate constant, first (fast) phase / exchange rate constant, second (slow) phase: double-exponential fit
T1 construct: purchased Peptide Specialty Laboratories, Heidelberg, Germany; host or cells: chemical synthesis (custom peptide)
T1 sequence (P02724 88-120 limits assumed) 1: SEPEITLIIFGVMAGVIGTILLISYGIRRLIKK
T1 sequence (P02724 88-120 limits assumed) 2: T1 sequence (P02724 88-120 limits assumed) 1
Method: (§1) For Förster resonance energy transfer (FRET) measurements, equal concentrations of FL- and TAMRA-labeled GpA TM domains were used. Concentrations of the peptide stock solutions were determined from absorbance measurements on a Perkin Elmer Lambda 35 UV/VIS spectrophotometer. In all experiments, we used 0.25 µM for each of the two labeled GpA peptides. Peptides dissolved in TFE and A8-35 dissolved in ethanol were mixed, and organic solvents were removed under a gentle stream of nitrogen gas. Residual solvent traces were removed by vacuum desiccation overnight. The dried peptide/polymer film was then hydrated in 10 mM HEPES buffer (pH 7.4) containing 150 mM NaCl.
(§2) After at least 2 h of incubation at 37°C and 10 min of centrifugation at 16,000 g, steady-state fluorescence measurements were performed with the supernatant at 25°C on a Horiba Fluoromax 4 system with both excitation and emission slits at 3 nm. The excitation wavelength was set at 439 nm, and emission spectra were recorded from 480 to 650 nm. For FRET measurements with SDS, several concentrations of SDS, both below and above the CMC determined for the given buffer conditions, were used, and hydrated samples were incubated overnight.
Energy transfer E was calculated using the donor fluorescence intensities at 525 nm in presence and absence of acceptor according to [drawing 1] (1)
To investigate the effect of A8-35 on the GpA dimer stability in greater detail, we next performed kinetic measurements and determined the exchange rates of GpA TM helices between various polymer particles after reconstitution. Upon addition of an excess of a competing surfactant, such as free APols, detergents or phospholipids, MPs can be released from preformed complexes with APols, although at very slow dissociation rates, and e.g. integrate into detergent micelles, [37]-[39]. To test this, donor- and acceptor-labeled GpA peptides were individually solubilized in 20 µM A8-35 and incubated at 37°C for at least 2 h. Next, A8-35-solubilized donor and acceptor peptides were mixed in a 1∶1 ratio, and fluorescence emission spectra were recorded every 10 min for about 17 h (Figure 3A). As a control necessary for calculation of energy transfer, this measurement was also performed with solely the donor sample, for which no changes in fluorescence intensity were observed. […] To compare the exchange rates measured in APols with rates determined in micellar environments, the same experiment was performed in 5 mM DDM micelles (Figure 3C).
Figure 3 Kinetics of the exchange of GpA TM peptides between APol aggregates. Donor- and acceptor-labelled GpA TM (each 0.25 µM) domains were separately solubilized in 20 µM APol at a final polymer/peptide ratio of 40∶1. (A) After incubation at 37°C, donor and acceptor were mixed, and emission spectra (normalized at 525 nm) were recorded every 10 min over a time period of 17 h at 25°C. (B) The energy transfer increased over hours to the level determined by steady-state FRET measurements due to mixing of donor- and acceptor-labelled peptides.

human GpA TM domain [2] = target: T1, human GpA TM domain; test: Reversibility of SDS-mediated GpA dimer dissociation, FRET after dilution of SDS; assay type: binding; settings: n = 3
Method: as §1
as §2, with “overnight. […]” for “overnight.”

With `CC[C@H](C)[C@H](NC(=O)CNC(=O)[C@H](Cc1ccc(O)cc1)NC(=O)[C@H](CO)NC(=O)[C@@H](NC(=O)[C@H](CC(C)C)NC(=O)[C@H](CC(C)C)NC(=O)[C@@H](NC(=O)[C@@H](NC(=O)CNC(=O)[C@@H](NC(=O)[C@@H](NC(=O)CNC(=O)[C@H](C)NC(=O)[C@H](CCSC)NC(=O)[C@@H](NC(=O)CNC(=O)[C@H](Cc1ccccc1)NC(=O)[C@@H](NC(=O)[C@@H](NC(=O)[C@H](CC(C)C)NC(=O)[C@@H](NC(=O)[C@@H](NC(=O)[C@H](CCC(=O)O)NC(=O)[C@@H]1CCCN1C(=O)[C@H](CCC(=O)O)NC(=O)[C@@H](N)CO)[C@@H](C)CC)[C@@H](C)O)[C@@H](C)CC)[C@@H](C)CC)C(C)C)C(C)C)[C@@H](C)CC)[C@@H](C)O)[C@@H](C)CC)[C@@H](C)CC)C(=O)N[C@@H](CCCNC(=N)N)C(=O)N[C@@H](CCCNC(=N)N)C(=O)N[C@@H](CC(C)C)C(=O)N[C@H](C(=O)N[C@@H](CCCCN)C(=O)N[C@@H](CCCCN)C(=O)O)[C@@H](C)CC` [GpA TM domain] the “amplitude of first (fast) phase” value (human GpA TM domain [1]; 5 mM DDM micelles) was 13.3, the “amplitude of second (slow) phase” value (human GpA TM domain [1]; 5 mM DDM micelles) was 15.6 and the “exchange rate constant, first (fast) phase” value (human GpA TM domain [1]; 5 mM DDM micelles) was 41.5 h⁻¹. For the same molecule, the “exchange rate constant, second (slow) phase” value (human GpA TM domain [1]; 5 mM DDM micelles) was 5.8 h⁻¹, the “duration of peptide exchange” value (human GpA TM domain [1]; 5 mM DDM micelles, listed as GpA TM peptides) was “completed after some dozen minutes” and the energy transfer (human GpA TM domain [1]; 17 h after 1:1 mixing of donor- and acceptor-labeled peptides (each 0.25 µM) in 20 µM A8-35, 25°C) was about 35%. The “dimer fraction after exchange” value (human GpA TM domain [1]; 17 h after mixing, from energy transfer, 20 µM A8-35, 25°C) was about 0.7, the “duration of peptide exchange” value (human GpA TM domain [1]; A8-35 (20 µM)) was “proceeded for several hours” and the “amplitude of first (fast) phase” value (human GpA TM domain [1]; A8-35 (20 µM), 25°C) was 8.7. For the same molecule, the “amplitude of second (slow) phase” value (human GpA TM domain [1]; A8-35 (20 µM), 25°C) was 12.4, the “exchange rate constant, first (fast) phase” value (human GpA TM domain [1]; A8-35 (20 µM), 25°C) was 2.2 h⁻¹ and the “exchange rate constant, second (slow) phase” value (human GpA TM domain [1]; A8-35 (20 µM), 25°C) was 0.17 h⁻¹. For the same molecule, the “reversibility of dissociation and association of GpA TM helix” value (human GpA TM domain [2]; 2 mM SDS diluted to 0.4 mM SDS, constant 20 µM A8-35 and peptide) was “fully reversible” and the “fraction dimer after dilution from higher SDS concentration” value (human GpA TM domain [2]; 2 mM SDS sample diluted to 0.4 mM SDS, 20 µM A8-35) was “comparable to that observed at 0.4 mM SDS”.

Reference: article PMC4210147, “Sequence-Specific Dimerization of a Transmembrane Helix in Amphipol A8-35” (PLoS ONE, 2014)
